Data reported in patent EP1614683B1, “Indazole compounds and pharmaceutical compositions for inhibiting protein kinases, and methods for their use” (priority 1999, dated 2001).
Where two headings read alike, the source gives them in different places.

Key:
human FGF-R1 = human FGF-R1 (Homo sapiens, UniProt P11362, C488A/C584S/L457V); experiment: FGF-R spectrophotometric assay; type: biochemical; conditions: Table 1; for inhibition at 1 µM: compound concentration 1 µM, read-out: FGF-P* (% inhibition)
Protocol: The spectrophotometric assay was carried out as described above for VEGF-R2, except for the following changes in concentration: FGF-R = 50 nM, ATP = 2 mM, and poly(E4Y1) =15 mM.

CDK4/Cyclin D3 complex = CDK4/Cyclin D3 complex (Homo sapiens, UniProt P11802); experiment: biochemical; conditions: for inhibition at 1 µM: read-out: CDK4 * (% inhibition)
LCK tyrosine kinase = LCK tyrosine kinase (Homo sapiens, UniProt P06239, C224D/P223M); experiment: LCK spectrophotometric assay; type: biochemical; conditions: read-out: Lck-P* (% inhibition)
Protocol: The spectrophotometric assay was carried out as described above for VEGF-R2, except for the following changes in concentration: LCK = 60 nM, MgCl2 = 0 mM, poly(E4Y1) = 20 mM.

[1] = system: lung cancer cells (line MV522); experiment: Cancer cell proliferation (MV522) assay; type: cell-based
Protocol: The protocol for assessing cellular proliferation in cancer cells is similar to that used for assessments in HUVEC cells. Two thousand lung cancer cells (line MV522, acquired from American Tissue Cultural Collection) were seeded in growth media (RPMI1640 medium supplemented with 2 mM glutamine and 10% FBS). Cells are allowed to attach for 1 day prior to addition of test agents and /or vehicles. Cells are treated simultaneously with the same test agents used in the HUVEC assay. Cellular proliferation is quantified by MTT dye reduction assay 72 hours after exposure to test agents. The total length of the assay is 4 days vs. 5 for HUVEC cells because MV522 cells are not exposed to starvation medium.

[2] = system: human umbilical vein endothelial cells (HUVEC); experiment: HUVEC proliferation assay (VEGF-stimulated, MTT); type: cell-based; conditions: Homo sapiens, HUVEC
[3] = molecular target: T1, phosphorylated Tie-2 (aa 775-1122) (Homo sapiens, UniProt Q02763); experiment: TIE-2 spectrophotometric assay; type: biochemical; conditions: for inhibition at 1 µM: Table 5, bold values spectrophotometric assay, non-bolded DELFIA assay (bold not visible here), read-out: % Inhibition @ 1 µM Tie2-P
T1 construct: 4 to 12 nM phosphorylated Tie-2 (aa 775-1122); made in house; host or cells: insect cells
In short: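 Human phosphorylated Tie-2 kinase activity was measured spectrophotometrically by coupling ADP formation, from phosphoryl transfer to poly(Glu4 Tyr), to NADH oxidation via pyruvate kinase and lactate dehydrogenase. Absorbance loss at 340 nm was read on a Beckman DU650. Reactions held 1 mM phosphoenolpyruvate, 0.24 mM NADH, 40 mM MgCl2, 5 mM DTT, 0.5 mM ATP, and 15 units/mL each of PK and LDH in 100 mM HEPES, pH 7.5.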

[4] = system: VEGF dependent retinal neovascularization; experiment: Neonatal rat model of retinopathy of prematurity; type: in vivo; conditions: Model ROP, intravitreal
Protocol: A second model of VEGF dependent retinal neovascularization was employed to evaluate the activities of this series of compounds. […] The animals are exposed for 24 hours to a concentration of 50% oxygen followed by 24 hours at a concentration of 10% oxygen. This alternating cycle of hyperoxia followed by hypoxia is repeated 7 times after which the animals are removed to room air (P14). Compounds are administered via intravitreal injection upon removal to room air and the animals are sacrificed 6 days later (P20). The isolated retinas are then isolated, stained mounted and analyzed as detail above in the development model. The effectiveness was also graded as is described for the development model.

in vivo = conditions: mouse, plasma, po, pH 2.3; for Cmax: 50 mg/kg
in vitro = in vitro ADME, human; conditions: human liver microsomes, 5 µM test compound, 37 °C, 2 h; for remaining at 2 h, 5 µM: read-out: % remain (HLM, 2 h)
In short: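 HLM diluted to 5 mg/mL in 100 mM KPO4, preincubated 10 min at 37 °C with NADPH-regenerating system. Compound (5 µM final) incubated at 37 °C in triplicate, sampled at 0 and 2 h into ice-cold acetonitrile, then LC-MS analysis.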

CDK2/Cyclin A complex = CDK2/Cyclin A complex (Homo sapiens, UniProt P24941); experiment: CDK2/Cyclin A assay ([32P]ATP incorporation into Rb fragment); type: biochemical
[5] = system: VEGF dependent retinal vascular development; experiment: In vivo assay of retinal vascular development in neonatal rats; design: species or system rat
In short: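 Neonatal rats given compound by intravitreal injection, vehicle usually 50% PEG 400/50% 300 mM sucrose, with vehicle in contralateral eye. Retinas removed six days later, ADPase-stained and flat-mounted; stained vessel area quantified by imaging and expressed as percent regression versus vehicle eye.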

human CHK1 (FL-CHK1) = molecular target: T2, human CHK1 (FL-CHK1) (Homo sapiens, UniProt O14757); experiment: CHK1 coupled spectrophotometric assay; type: biochemical; conditions: Table 1; read-out: CHK -1* (Ki)
T2 construct: C-terminally His-tagged full-length human CHK1 (FL-CHK1) was expressed using the baculovirus/insect cell system; made in house; host or cells: baculovirus/insect cell system
T2 sequence (O14757 1-476): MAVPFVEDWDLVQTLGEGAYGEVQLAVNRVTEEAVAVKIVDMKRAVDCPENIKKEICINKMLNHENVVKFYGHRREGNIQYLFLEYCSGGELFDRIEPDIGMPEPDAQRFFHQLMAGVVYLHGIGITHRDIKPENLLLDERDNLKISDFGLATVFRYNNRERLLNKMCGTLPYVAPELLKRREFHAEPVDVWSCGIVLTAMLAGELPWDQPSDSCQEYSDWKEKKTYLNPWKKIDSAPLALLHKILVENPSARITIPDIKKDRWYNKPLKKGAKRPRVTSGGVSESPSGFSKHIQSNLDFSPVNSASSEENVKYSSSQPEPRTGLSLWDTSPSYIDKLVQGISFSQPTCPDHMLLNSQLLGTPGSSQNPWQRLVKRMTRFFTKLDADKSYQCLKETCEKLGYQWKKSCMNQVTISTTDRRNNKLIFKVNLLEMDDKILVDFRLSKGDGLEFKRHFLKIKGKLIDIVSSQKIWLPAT
In short: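 His-tagged full-length human CHK1 from baculovirus/insect cells, 10 nM, phosphorylating Syntide-2. ADP formation coupled via PK/LDH with PEP to NADH oxidation, followed as absorbance decrease at 340 nm. Ki from initial rates at varying compound concentrations.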

[6] = PO, 25 mg/kg, vehicle PEG400:H2O pH 2.3 30:70
[7] = Table 1, compound concentration 1 µM
[8] = MV522, Table 1, read-out: MV522 IC50
[9] = Table 1, + albumin, read-out: HUVEC + albumin IC50
[10] = 10 mg/ml, vehicle PEG/water 70:30
[11] = 5 mg/ml, vehicle PEG/water 70:30

Sequence of LCK tyrosine kinase (P06239 223-509 P223M/C224D): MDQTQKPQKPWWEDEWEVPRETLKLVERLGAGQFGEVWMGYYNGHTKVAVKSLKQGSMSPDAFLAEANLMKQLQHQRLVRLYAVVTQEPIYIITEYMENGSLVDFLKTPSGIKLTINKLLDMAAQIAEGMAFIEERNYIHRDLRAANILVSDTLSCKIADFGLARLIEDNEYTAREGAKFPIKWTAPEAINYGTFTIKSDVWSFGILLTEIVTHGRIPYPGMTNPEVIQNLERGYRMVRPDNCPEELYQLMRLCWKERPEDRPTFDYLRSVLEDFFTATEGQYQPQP
Sequence of CDK4/Cyclin D3 complex (P11802 whole entry): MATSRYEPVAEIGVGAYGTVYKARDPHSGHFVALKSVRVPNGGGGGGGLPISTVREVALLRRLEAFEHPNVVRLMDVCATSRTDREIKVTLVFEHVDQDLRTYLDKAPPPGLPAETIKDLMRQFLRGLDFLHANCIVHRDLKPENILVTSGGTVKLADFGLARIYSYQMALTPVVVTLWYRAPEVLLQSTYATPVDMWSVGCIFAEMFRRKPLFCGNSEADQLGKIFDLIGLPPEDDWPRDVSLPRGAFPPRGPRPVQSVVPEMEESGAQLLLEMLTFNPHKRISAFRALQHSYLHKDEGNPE
Sequence of CDK4/Cyclin D3 complex (P30281 whole entry partner): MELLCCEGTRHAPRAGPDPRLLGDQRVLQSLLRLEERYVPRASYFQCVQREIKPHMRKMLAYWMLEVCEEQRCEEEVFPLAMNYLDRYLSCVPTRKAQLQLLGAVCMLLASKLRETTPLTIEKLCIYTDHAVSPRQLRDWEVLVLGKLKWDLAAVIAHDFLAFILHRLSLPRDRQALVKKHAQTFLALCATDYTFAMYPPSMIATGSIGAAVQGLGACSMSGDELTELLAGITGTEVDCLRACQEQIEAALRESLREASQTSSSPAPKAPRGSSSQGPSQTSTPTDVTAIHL
T1 sequence (Q02763 775-1122): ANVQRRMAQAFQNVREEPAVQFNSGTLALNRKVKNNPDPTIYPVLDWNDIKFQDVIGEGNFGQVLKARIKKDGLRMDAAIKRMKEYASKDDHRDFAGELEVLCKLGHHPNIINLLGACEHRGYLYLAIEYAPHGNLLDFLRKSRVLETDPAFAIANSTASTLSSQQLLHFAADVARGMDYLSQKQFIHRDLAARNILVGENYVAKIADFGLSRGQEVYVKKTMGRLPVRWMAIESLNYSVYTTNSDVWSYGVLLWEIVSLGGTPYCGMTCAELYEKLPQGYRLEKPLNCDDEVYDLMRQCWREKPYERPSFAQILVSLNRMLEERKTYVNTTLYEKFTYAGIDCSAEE
Sequence of human FGF-R1 (P11362 456-766 L457V/C488A/C584S): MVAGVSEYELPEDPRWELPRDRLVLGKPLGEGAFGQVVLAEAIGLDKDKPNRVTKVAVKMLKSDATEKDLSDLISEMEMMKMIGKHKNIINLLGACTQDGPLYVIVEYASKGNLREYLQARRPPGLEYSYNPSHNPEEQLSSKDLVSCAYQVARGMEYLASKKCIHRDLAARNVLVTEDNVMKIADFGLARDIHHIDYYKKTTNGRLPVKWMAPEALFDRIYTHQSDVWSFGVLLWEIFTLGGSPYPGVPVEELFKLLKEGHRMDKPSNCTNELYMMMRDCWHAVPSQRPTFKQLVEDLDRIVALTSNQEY

Structure (SMILES) | inhibition at 1 µM (human FGF-R1) | inhibition at 1 µM (CDK4/Cyclin D3 complex) | inhibition at 1 µM (LCK tyrosine kinase; [7]) | IC50 [1, 8] | IC50 [2, 9] | IC50 ([2]; Table 1, read-out: HUVEC IC50) | Initial Evaluation [4, 10] | further results
C=C(c1cccc(NC(C)=O)c1)c1ccc2c(/C=C/c3ccccc3)n[nH]c2c1 [Example 23, 6-(1-(3-Acetamido-phenyl)-vinyl)-3-styryl-1H-indazole] | 14% | 17% | 12% | 5.7 µM | 106 nM | 9.5 nM |  | inhibition at 1 µM [3]: 5%
O=C(Nc1cccc(Oc2ccc3c(/C=C/c4ccccc4)n[nH]c3c2)c1)c1ccccc1 [4(a), N-[3-(3-Styryl-1H-indazol-6-yloxy)-phenyl]-benzamide] |  | 19% | 68% | 6.3 µM |  |  | ++ (two pluses being judged to be approximately 25-75 % regression) | Cmax (in vivo): 50 ng/mL; inhibition at 1 µM [3]: 69%
Cc1cccc(C(=O)Nc2cccc(Oc3ccc4c(-c5cc6ccccc6[nH]5)n[nH]c4c3)c2)c1 [6(b), N-{3-[3-(2-Indolyl)-1H-indazol-6-yloxy]-phenyl}-3-methyl benzamide] | 95% |  | 81% | 4 µM | 60 nM | 8 nM | ++ (two pluses being judged to be approximately 25-75 % regression) | 
O=C(Nc1cccc(Oc2ccc3c(/C=C/c4ccc(Cl)cc4)n[nH]c3c2)c1)c1ccccc1 [6(a), N-(3-[3-[2-(4-Chloro-phenyl)-vinyl]-1H-indazol-6-yloxy}-phenyl)-benzamide] | 67% |  | 33% | 3.5 µM | 50 nM | 8.5 nM |  | Initial Evaluation ([4]; 5 mg/ml, vehicle PEG/water): ++ (two pluses being judged to be approximately 25-75 % regression); remaining at 2 h, 5 µM (in vitro): 69%
Clc1cccc(/C=C/c2n[nH]c3cc(-c4ccncc4)ccc23)c1 [Reference Example 29(i), 6-pyrid-4-yl-3-E-[2-(3-chlorophenyl)ethenyl]-1H-indazole] |  |  |  |  |  |  |  | Ki (CDK4/Cyclin D3 complex): 5000 nM; Ki (CDK2/Cyclin A complex; Table 3, read-out: CDK2* (Ki)): 3100 nM
CCOc1cc(CO)c(-c2ccc3c(-c4nc5ccccc5[nH]4)n[nH]c3c2)cc1OC [Reference Example 24(m), 3-1H-Benzoimidazol-2-yl-6-(2-(hydroxymethyl)-4-ethoxy-5-methozy-phenyl)-1H-indazole] |  | 16% |  |  |  |  |  | inhibition at 1 µM (CDK2/Cyclin A complex; read-out: CDK2 * (% inhibition)): 17%
O=C(Nc1cccc(Oc2ccc3c(/C=C/c4cccs4)n[nH]c3c2)c1)c1ccccc1 [Reference Example 30(a), 6-[3-benzamidophenoxy]-3-E-[2-(thien-2-yl)thenyl]-1H-indazole] | 94% |  | 45% | 5.7 µM | 22 nM | 1.6 nM | ++ (two pluses being judged to be approximately 25-75 % regression) | % Inhibition [4, 10]: 48%; % remain (HLM, 2 h) (in vitro): 64%; inhibition at 1 µM [3]: 19%
O=C(Nc1cccc(C(=O)c2ccc3c(-c4nc5ccccc5[nH]4)n[nH]c3c2)c1)c1ccccc1 [Reference Example 42(b), 6-(3-Benzamidobenzoyl)-3-(1H-benzoimidazol-2-yl)-1H-indazole] | 27% |  | 75% | 2.1 µM | 29 nM | 2.1 nM |  | % remain (HLM, 2 h) (in vitro): 81%; % Inhibition ([5]; Model P9, intravitreal, 10 mg/ml, vehicle PEG/water 70:30): 40%
Cc1cccc(C(=O)Nc2cccc(Oc3ccc4c(/C=C/c5ccccc5)n[nH]c4c3)c2)c1 [5(b), 3-Methyl-N-[3-(3-styryl-1h-indazol-6-yloxy)-phenyl]-benzamide] |  |  | 78% | 8.5 µM | 33 nM | 3.7 nM |  | % Inhibition [4, 11]: 45%; Initial Evaluation [4, 11]: ++ (two pluses being judged to be approximately 25-75 % regression)
COc1cc(-c2ccc3c(-c4cc5ccccc5[nH]4)n[nH]c3c2)ccc1O [2(d), 3-(1H-Indol-2-yl)-6-(3-methoxy-4-hydroxy-phenyl)-1H-indazole] |  |  |  |  |  |  |  | Ki (human FGF-R1; read-out: FGF-P* (Ki)): 68 nM; inhibition at 1 µM (LCK tyrosine kinase): 43%; IC50 ([1]; MV522, read-out: MV522 IC50 (µM)): 0.18 µM; Ki (human CHK1 (FL-CHK1)): 91 nM; IC50 ([2]; read-out: HUVEC IC50 (nM)): 450 nM; inhibition at 10 µM ([3]; read-out: % Inhibition Tie2-P, compound tested at 10 µM): 90%
O=C(Nc1cccc(C(=O)c2ccc3c(/C=C/c4ccccc4)n[nH]c3c2)c1)c1ccccc1 [19(b), N-[3-(3-Styryl-1H-indazole-6-carbonyl)-phenyl]-benzamide] | 60% | 11% | 58% | 4.3 µM | 27 nM | 2.9 nM | ++ (two pluses being judged to be approximately 25-75 % regression) | remaining at 2 h, 5 µM (in vitro): 137%; Cmax (in vivo): 30 ng/mL
Cn1ccnc1C(=O)Nc1cccc(Oc2ccc3c(/C=C/c4ccccn4)n[nH]c3c2)c1 [Reference Example 31(e), 6-[3-((1-Methylimidazol-2-yl)carboxamido)phenoxy]-3-E-[2-(pyridin-2-yl)ethenyl]-1H-indazole] | 62% |  | 43% | 8.6 µM | 6.2 nM |  |  | T1/2 [6]: 13.1 h; % remain (HLM, 2 h) (in vitro): 49%; AUC (in vivo; 25 mg/kg): > 30300 ng·h/mL; % Inhibition ([5]; Model P8, intravitreal, 5 mg/ml, vehicle PEG/water 50:50): 24%
